# Calls of active or inactive are those of the source. No cut-off for these calls is given here.
# How the values were obtained:
# [1] = molecular target: T1, Sigma non-opioid intracellular receptor 1 (Homo sapiens, UniProt Q99720); assay: Displacement of [125I]-IPAG from sigma1 in human MDA-MB-468 cell membranes
# Androgen receptor = molecular target: T2, Androgen receptor (Homo sapiens, UniProt P10275); assay: Antagonist activity at full length human androgen receptor expressed in mammalian expression system measured after 22 to 24 hrs by luciferase reporter gene assay
# T2 sequence (P10275 whole entry): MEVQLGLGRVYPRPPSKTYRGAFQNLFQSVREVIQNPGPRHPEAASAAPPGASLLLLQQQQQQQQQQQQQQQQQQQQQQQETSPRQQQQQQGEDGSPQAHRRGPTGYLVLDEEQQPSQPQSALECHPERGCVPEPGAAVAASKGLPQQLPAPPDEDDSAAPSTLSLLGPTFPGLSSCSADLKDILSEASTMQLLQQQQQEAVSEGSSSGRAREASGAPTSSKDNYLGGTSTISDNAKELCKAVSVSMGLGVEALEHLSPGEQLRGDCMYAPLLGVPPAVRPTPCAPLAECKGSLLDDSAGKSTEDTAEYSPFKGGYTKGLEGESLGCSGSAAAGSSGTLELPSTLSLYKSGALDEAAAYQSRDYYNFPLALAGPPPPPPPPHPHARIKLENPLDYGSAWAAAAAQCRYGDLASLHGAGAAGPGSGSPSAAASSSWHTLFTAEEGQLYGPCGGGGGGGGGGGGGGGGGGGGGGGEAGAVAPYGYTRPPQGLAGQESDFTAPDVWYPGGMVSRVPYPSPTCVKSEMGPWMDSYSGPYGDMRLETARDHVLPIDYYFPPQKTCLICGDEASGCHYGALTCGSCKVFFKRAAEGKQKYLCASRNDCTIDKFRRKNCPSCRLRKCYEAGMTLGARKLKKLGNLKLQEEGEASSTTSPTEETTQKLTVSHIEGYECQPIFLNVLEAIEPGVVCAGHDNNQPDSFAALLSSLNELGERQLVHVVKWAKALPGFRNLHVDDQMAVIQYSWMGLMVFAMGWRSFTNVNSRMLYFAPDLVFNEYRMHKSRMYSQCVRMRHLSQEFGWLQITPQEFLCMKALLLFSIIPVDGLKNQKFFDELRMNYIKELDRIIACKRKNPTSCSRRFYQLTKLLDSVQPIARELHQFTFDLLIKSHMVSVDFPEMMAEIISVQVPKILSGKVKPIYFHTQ
# [2] = molecular target: T1, Sigma non-opioid intracellular receptor 1; assay: Displacement of [3H]-(+)-pentazocine from sigma1 in human MDA-MB-468 cell membranes
# Plasma [3] = assay: Protein binding in mouse plasma; type: ADME, cell-free
# Plasma [4] = assay: Protein binding in human plasma; type: ADME, cell-free
# [5] = Stability in mouse plasma; type: ADME, cell-free; settings: read-out: Stability
# [6] = Stability in human plasma; type: ADME, cell-free; settings: read-out: Stability
# [7] = Stability in mouse liver microsomes; type: ADME, microsome; settings: read-out: Stability
# [8] = Stability in human liver microsomes; type: ADME, microsome; settings: read-out: Stability
# [9] = Solubility of compound in PBS buffer at pH 7.4; type: physicochemical
# [10] = molecular target: T3, Voltage-gated inwardly rectifying potassium channel KCNH2 (Homo sapiens, UniProt Q12809); assay: Inhibition of human ERG
# T3 sequence (Q12809 whole entry): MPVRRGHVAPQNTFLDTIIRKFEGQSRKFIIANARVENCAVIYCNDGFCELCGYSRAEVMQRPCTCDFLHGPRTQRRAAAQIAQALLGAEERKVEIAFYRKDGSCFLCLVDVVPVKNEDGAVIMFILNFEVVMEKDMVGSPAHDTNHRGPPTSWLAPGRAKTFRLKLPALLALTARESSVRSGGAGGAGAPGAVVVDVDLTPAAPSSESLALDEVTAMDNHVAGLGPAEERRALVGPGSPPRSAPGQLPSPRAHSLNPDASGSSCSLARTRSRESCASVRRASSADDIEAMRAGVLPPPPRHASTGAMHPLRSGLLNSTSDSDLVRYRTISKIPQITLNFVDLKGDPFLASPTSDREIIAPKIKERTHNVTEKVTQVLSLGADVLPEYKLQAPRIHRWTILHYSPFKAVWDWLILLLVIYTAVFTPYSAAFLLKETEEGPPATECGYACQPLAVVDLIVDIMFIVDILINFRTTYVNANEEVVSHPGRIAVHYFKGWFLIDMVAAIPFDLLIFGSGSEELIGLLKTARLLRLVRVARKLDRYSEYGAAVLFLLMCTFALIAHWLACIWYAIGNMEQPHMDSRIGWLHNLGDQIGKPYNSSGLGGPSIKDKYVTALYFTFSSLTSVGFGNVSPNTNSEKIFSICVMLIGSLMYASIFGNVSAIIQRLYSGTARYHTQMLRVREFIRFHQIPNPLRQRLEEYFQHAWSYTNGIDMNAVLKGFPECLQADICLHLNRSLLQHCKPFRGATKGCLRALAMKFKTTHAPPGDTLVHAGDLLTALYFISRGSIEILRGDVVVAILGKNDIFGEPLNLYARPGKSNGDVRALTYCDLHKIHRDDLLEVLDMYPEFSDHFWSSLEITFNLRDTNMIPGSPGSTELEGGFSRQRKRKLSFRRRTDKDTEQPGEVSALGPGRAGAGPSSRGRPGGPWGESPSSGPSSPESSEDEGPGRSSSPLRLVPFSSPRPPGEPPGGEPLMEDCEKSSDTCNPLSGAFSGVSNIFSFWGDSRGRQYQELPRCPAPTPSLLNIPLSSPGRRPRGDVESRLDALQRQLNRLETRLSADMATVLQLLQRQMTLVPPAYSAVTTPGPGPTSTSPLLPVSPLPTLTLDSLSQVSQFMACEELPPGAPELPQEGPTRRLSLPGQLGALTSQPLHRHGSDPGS
# [11] = AUC (0 to infinity) in Swiss mouse plasma at 2 mg/kg, iv; type: ADME, organism-based; design: dose 2 mg/kg, time infinity, route intravenous
# MDA-MB-468 = assay: Antiproliferative activity against human MDA-MB-468 cells at 3 to 20 uM by CellTiter-Glo assay; type: functional, cell-based
# [12] = AUC (0 to infinity) in Swiss mouse plasma at 10 mg/kg, ip; type: ADME, organism-based; design: dose 10 mg/kg, route intraperitoneal, time infinity
# [13] = AUC (0 to infinity) in Swiss mouse brain at 10 mg/kg, ip; type: ADME, organism-based; design: dose 10 mg/kg, time infinity, route intraperitoneal
# [14] = Volume of distribution in Swiss mouse plasma at 2 mg/kg, iv; type: ADME, organism-based
# [15] = Clearance in Swiss mouse plasma at 2 mg/kg, iv
# [16] = AUC (0 to infinity) in Swiss mouse plasma at 10 mg/kg, po; type: ADME, organism-based; design: dose 10 mg/kg, time infinity, route oral
# [17] = Half life in Swiss mouse plasma at 10 mg/kg, po
# [18] = AUC (0 to infinity) in Swiss mouse plasma at 30 mg/kg, po; type: ADME, organism-based; design: dose 30 mg/kg, time infinity, route oral
# [19] = Half life in Swiss mouse plasma at 30 mg/kg, po
# [20] = Ratio of drug level in Swiss mouse brain to plasma at 10 mg/kg, ip
# Plasma [21] = settings: mouse, in vivo, ip, 10 mg/kg
# Brain = settings: mouse, in vivo, ip, 10 mg/kg
# in vivo [22] = settings: Swiss, mouse, plasma, po, 10 mg/kg
# in vivo [23] = settings: Swiss, mouse, plasma, po, 10 mg/kg; remark: listed apart in the source
# in vivo [24] = settings: Swiss, mouse, plasma, po, 10 mg/kg; remark: listed apart in the source
# in vivo [25] = settings: Swiss, mouse, plasma, po, 30 mg/kg
# in vivo [26] = settings: Swiss, mouse, plasma, po, 30 mg/kg; remark: listed apart in the source
# in vivo [27] = settings: Swiss, mouse, plasma, po, 30 mg/kg; remark: listed apart in the source
# [28] = molecular target: T3, Voltage-gated inwardly rectifying potassium channel KCNH2; assay: Inhibition of human ERG expressed in CHOK1 cells by Qpatch clamp method
# T1 sequence (Q99720 whole entry): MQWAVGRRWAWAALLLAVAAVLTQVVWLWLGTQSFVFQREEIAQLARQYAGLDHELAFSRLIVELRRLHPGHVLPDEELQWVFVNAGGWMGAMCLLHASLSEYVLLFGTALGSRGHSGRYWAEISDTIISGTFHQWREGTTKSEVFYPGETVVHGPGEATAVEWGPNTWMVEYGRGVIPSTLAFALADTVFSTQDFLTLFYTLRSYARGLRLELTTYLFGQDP
EC50 (Androgen receptor),Ki [2],PPB (Plasma [3]),PPB (Plasma [4]),half-life [5],half-life [6],half-life [7],half-life [8],solubility [9],SMILES,IC50 [10],further results
28.1 µM,13.4 nM,82.1%,75.1%,> 360 min,> 360 min,7 min,23.2 min,8.45 mg/mL,COc1ccc(NC(=N)NCCCOc2ccc(F)cc2)cc1,417 nM,–
17 to 17.1 µM,–,–,–,–,–,–,–,–,CC(=O)O[C@H]1CC[C@@]2(C)C(=CC[C@@H]3[C@@H]2CC[C@]2(C)C(c4cccnc4)=CC[C@@H]32)C1 [ABIRATERONE ACETATE],–,–
12.7 µM,–,88.8%,93.4%,> 360 min,> 360 min,24.8 min,> 90 min,4.58 mg/mL,N=C(NCCCOc1ccc(F)cc1)Nc1ccc(Cl)cc1,–,AUC(0-inf) [11]: 57 to 71 ng·h/mL; Activity (MDA-MB-468): Active; AUC(0-inf) [12]: 166 ng·h/mL; AUC(0-inf) [13]: 856 ng·h/mL; Vd [14]: 57.6 to 91 L/kg; clearance [15]: 469 to 586 mL/min/kg; AUC(0-inf) [16]: 141 ng·h/mL; half-life [17]: > 180 min; AUC(0-inf) [18]: 480 ng·h/mL; half-life [19]: > 180 min; Kp [20]: 5; Cmax (Plasma [21]): 438 nM; Cmax (Brain): 2150 nM; Cmax (in vivo [22]): 304 nM; Tmax (in vivo [23]): 15 min; AUC(0-t) (in vivo [24]): 119 ng·h/mL; Cmax (in vivo [25]): 674 nM; Tmax (in vivo [26]): 1 h; AUC(0-t) (in vivo [27]): 414 ng·h/mL
9.5 to 9.75 µM,–,–,–,–,–,–,–,–,NC(=NC12CC3CC(CC(C3)C1)C2)Nc1ccc(I)cc1,491 nM,IC50 [28]: 2600 nM
–,46.1 nM,97.9%,96.6%,> 360 min,> 360 min,24.6 min,> 90 min,5.37 mg/mL,N=C(NCCCOc1ccc(F)cc1)Nc1ccc(I)cc1,109 nM,Activity (MDA-MB-468): Active

# Continued, compound first:
SMILES,EC50 (Androgen receptor),Ki [2],PPB (Plasma [3]),PPB (Plasma [4]),half-life [5],half-life [6],half-life [7],half-life [8],solubility [9],IC50 [10],further results
N=C(Nc1ccc(I)cc1)Nc1ccc(I)cc1,–,–,–,–,–,–,–,–,–,–,Ki [1]: 3 nM
N=C(NCCCOc1ccc(F)cc1)Nc1ccc(C(F)(F)F)cc1,–,45.3 nM,–,–,–,–,–,–,–,–,–
N=C(NCCCOc1ccc(F)cc1)NCCCOc1ccc(F)cc1,–,–,–,–,–,–,–,–,–,–,Ki [1]: > 1000 nM
